{
  "source": "patent US12357711B2",
  "about": "“PSMA binding dual mode radiotracer and therapeutic” (Technische Universität München, priority 2019, dated 2025)",
  "key": {"[1]": {"assay": "Formation of F-18-fluoride / isotopic exchange in mouse urine", "assay_type": "in vitro ADME, mice", "description": "For in vivo μmetabolism studies, 8-12 MBq (<0.6 nmol) of the respective ^18F-labeled ligand (rhPSMA-7.1-7.4) was injected into the tail vein of female healthy CB17-SCID mice (n=4). Mice were left under anesthesia for 30 min and the urine was collected using a bladder catheter. Urine samples were pooled and centrifuged for 5 min at 9000 rpm to remove suspended solids. The supernatant was directly used for radio-HPLC analysis with the above mentioned conditions. […] Additionally, this experiment was carried out with the addition of excess Na^19F (0.5 μmop and incubation for 2 h with ^18F-labeled rhPSMA-7.3.\nFor this purpose normal mice were used. Urine samples were collected by means of a catheter over a period of 30 min. The urine was centrifuged and directly subjected to HPLC and TLC.\nConsequently, fresh and nonradioactive urine samples collected from normal mice were incubated with [F-18]rhPSMA7.x for various time periods (see legend to FIG. 21).\nTo further support the hypothesis, 500 nmol cold F-19-fluoride was added to fresh and nonradioactive urine of mice, followed by the addition of [F-18]rhPSMA7.3 and incubation for 2 h. According to the hypothesis, the high concentration of [F-19]fluoride should result in the formation of a significant amount of [F-18]fluoride."}, "PSMA": {"biological_target": "T1, PSMA (Homo sapiens, UniProt Q04609)", "T1 construct": "endogenous in cells; host or cells: LNCaP cells", "T1 sequence (Q04609 whole entry)": "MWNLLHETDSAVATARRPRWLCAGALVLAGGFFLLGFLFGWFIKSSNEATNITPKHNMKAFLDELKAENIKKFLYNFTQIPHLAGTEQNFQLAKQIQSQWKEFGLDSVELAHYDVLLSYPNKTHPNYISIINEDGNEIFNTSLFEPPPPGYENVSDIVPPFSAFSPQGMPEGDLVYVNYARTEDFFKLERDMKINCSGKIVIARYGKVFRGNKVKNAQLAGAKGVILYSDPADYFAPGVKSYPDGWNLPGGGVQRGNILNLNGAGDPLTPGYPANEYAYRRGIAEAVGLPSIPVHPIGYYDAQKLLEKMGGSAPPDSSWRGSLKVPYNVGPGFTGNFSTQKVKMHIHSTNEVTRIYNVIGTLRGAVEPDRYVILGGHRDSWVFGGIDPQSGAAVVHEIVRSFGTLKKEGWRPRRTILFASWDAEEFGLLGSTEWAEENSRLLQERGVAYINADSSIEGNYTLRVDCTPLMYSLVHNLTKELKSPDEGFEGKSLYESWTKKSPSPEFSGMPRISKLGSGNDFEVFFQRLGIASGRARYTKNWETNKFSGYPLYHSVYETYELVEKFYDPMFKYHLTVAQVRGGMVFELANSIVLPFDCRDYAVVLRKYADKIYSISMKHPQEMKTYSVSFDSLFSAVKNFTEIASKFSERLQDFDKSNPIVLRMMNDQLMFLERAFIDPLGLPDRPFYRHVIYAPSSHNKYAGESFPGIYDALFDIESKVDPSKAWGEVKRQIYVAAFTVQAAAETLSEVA", "assay": "Determination of IC50: PSMA affinity, competitive binding on LNCaP cells against ([125I]I-BA)KuE", "conditions": "LNCaP cells, [125I]IB-KuE c=0.2 nM, 1 h, 4° C.", "description": "Data are expressed as mean±SD (n=3, in 3 different experiments).\nAfter removal of the culture medium, the cells were treated once with 500 μL of HBSS (Hank's balanced salt solution, Biochrom, Berlin, Germany, with addition of 1% bovine serum albumin (BSA)) and left 15 min on ice for equilibration in 200 μL HBSS (1% BSA). […] Quantification of bound and free radioligand was accomplished in a γ-counter."}},
  "note": "“And” between values parts separate entries of the source, which are not always exact repeats. Equal values may be shown once. Read-outs that look alike come from different tables or passages of the source.",
  "data": [
    {"smiles": "CC(C)(C)[Si](F)(c1ccc(C(=O)NC[C@@H](NC(=O)CC[C@@H](C(=O)O)N2CCN(CC(=O)[O-])CCN(CC(=O)[O-])CCN(CC(=O)[O-])CC2)C(=O)N[C@H](CCCCNC(=O)CCC(=O)NCCC[C@@H](NC(=O)CC[C@H](NC(=O)N[C@@H](CCC(=O)O)C(=O)O)C(=O)O)C(=O)O)C(=O)O)cc1)C(C)(C)C.[Ga+3]", "note": "[rhPSMA7.3, [^19F][^natGa]D-Dap-S-DOTAGA-rhPSMA7]", "values": [
      {"measurement": "radioactivity converted to [F-18]fluoride", "setting": "[1]; fresh nonradioactive mouse urine + 0.5 μmol (500 nmol) cold F-19-fluoride, incubation 2 h", "result": 98.5, "unit": "%"},
      {"measurement": "[F-18]rhPSMA7.3 proportion in radioactive urine after addition of 5 nmol [F-19]rhPSMA7-3", "setting": "[1]; room temperature", "result": 85.8, "unit": "%"},
      {"measurement": "[F-18]rhPSMA7.3 proportion in radioactive urine before addition of cold tracer", "setting": "[1]; urine with 20.6% [F-18]Fluoride", "result": 79.4, "unit": "%"},
      {"measurement": "IC50", "setting": "PSMA; HBSS+1% BSA, single measurements, read-out: individual IC50 measurements", "result": "3.17 nM and 2.91 nM and 5.35 nM and 5.74 nM and 4.59 nM and 4.45 nM"},
      {"measurement": "IC50", "setting": "PSMA; mean of individual measurements, read-out: IC50 Mean", "result": 4.37, "unit": "nM"}
    ]}
  ]
}
